Source: PubChem BioAssay (NCI)
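A five-concentration, 48-hour dose response in 96-well plates underlies each endpoint, interpolated linearly between surrounding concentrations. GI50: concentration for 50% inhibition of growth. TGI: total growth inhibition.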

Columns and labels:
Assay in all cases: DTP human tumour cell line panel, 48 h
SNB-19 CNS = system: SNB-19 CNS
LOX IMVI melanoma = system: LOX IMVI melanoma
MDA-MB-435 = system: MDA-MB-435
OVCAR-8 ovarian = system: OVCAR-8 ovarian
MOLT-4 leukemia = system: MOLT-4 leukemia
MCF7 breast = system: MCF7 breast
UACC-257 melanoma = system: UACC-257 melanoma
CCRF-CEM leukemia = system: CCRF-CEM leukemia
CAKI-1 renal = system: CAKI-1 renal
HCT-15 colon = system: HCT-15 colon
SK-MEL-28 melanoma = system: SK-MEL-28 melanoma
SW-620 colon = system: SW-620 colon
A498 renal = system: A498 renal
M14 melanoma = system: M14 melanoma
RXF 393 renal = system: RXF 393 renal
OVCAR-3 ovarian = system: OVCAR-3 ovarian
HT29 colon = system: HT29 colon
786-0 renal = system: 786-0 renal
HOP-92 NSCLC = system: HOP-92 NSCLC
NCI-H522 lung = system: NCI-H522 lung
KM12 colon = system: KM12 colon
RPMI-8226 leukemia = system: RPMI-8226 leukemia
UACC-62 melanoma = system: UACC-62 melanoma
OVCAR-4 ovarian = system: OVCAR-4 ovarian
SR leukemia = system: SR leukemia
OVCAR-5 ovarian = system: OVCAR-5 ovarian
SNB-75 CNS = system: SNB-75 CNS
COLO 205 colon = system: COLO 205 colon
NCI/ADR-RES ovarian = system: NCI/ADR-RES ovarian
BT-549 breast = system: BT-549 breast
SF-539 CNS = system: SF-539 CNS
TK-10 renal = system: TK-10 renal
HL-60(TB) leukemia = system: HL-60(TB) leukemia
IGROV1 ovarian = system: IGROV1 ovarian
SN12C renal = system: SN12C renal
SK-OV-3 ovarian = system: SK-OV-3 ovarian
ACHN renal = system: ACHN renal
SF-295 CNS = system: SF-295 CNS
HCC-2998 colon = system: HCC-2998 colon
A549 NSCLC = system: A549 NSCLC
SK-MEL-5 melanoma = system: SK-MEL-5 melanoma
SF-268 CNS = system: SF-268 CNS
SK-MEL-2 melanoma = system: SK-MEL-2 melanoma
T-47D breast = system: T-47D breast
NCI-H23 lung = system: NCI-H23 lung
UO-31 renal = system: UO-31 renal
NCI-H460 lung = system: NCI-H460 lung
HOP-62 NSCLC = system: HOP-62 NSCLC
PC-3 prostate = system: PC-3 prostate
DU-145 prostate = system: DU-145 prostate
NCI-H226 lung = system: NCI-H226 lung
EKVX NSCLC = system: EKVX NSCLC
HS 578T breast = system: HS 578T breast
U251 CNS = system: U251 CNS
MALME-3M melanoma = system: MALME-3M melanoma
MDA-MB-231 breast = system: MDA-MB-231 breast
HCT-116 colon = system: HCT-116 colon
K-562 leukemia = system: K-562 leukemia

CCC1CCCCN1C(=S)N/N=C(\C)c1ccccn1 (stereo not given)
GI50 (SNB-19 CNS): 154 nM
TGI (SNB-19 CNS): 4790 nM
GI50 (LOX IMVI melanoma): < 24.6 nM
TGI (LOX IMVI melanoma): 3860 nM
GI50 (MDA-MB-435): 127 nM
TGI (MDA-MB-435): 1790 nM
GI50 (OVCAR-8 ovarian): < 25.5 nM
TGI (OVCAR-8 ovarian): 2060 nM
GI50 (MOLT-4 leukemia): 98.2 nM
TGI (MOLT-4 leukemia): > 20700 nM
GI50 (MCF7 breast): < 12.1 nM
TGI (MCF7 breast): 4200 nM
GI50 (UACC-257 melanoma): < 21.5 nM
TGI (UACC-257 melanoma): 1680 nM
GI50 (CCRF-CEM leukemia): 41.4 nM
TGI (CCRF-CEM leukemia): > 100000 nM
GI50 (CAKI-1 renal): 46.6 nM
TGI (CAKI-1 renal): 1830 nM
GI50 (HCT-15 colon): 26.9 nM
TGI (HCT-15 colon): 3300 nM
GI50 (SK-MEL-28 melanoma): 561 nM
TGI (SK-MEL-28 melanoma): 4650 nM
GI50 (SW-620 colon): 46.3 nM
TGI (SW-620 colon): 2760 nM
GI50 (A498 renal): 136 nM
TGI (A498 renal): 1930 nM
GI50 (M14 melanoma): 35.8 nM
TGI (M14 melanoma): 1960 nM
GI50 (RXF 393 renal): 488 nM
TGI (RXF 393 renal): 1910 nM
GI50 (OVCAR-3 ovarian): < 13.3 nM
TGI (OVCAR-3 ovarian): 1160 nM
GI50 (HT29 colon): < 25.3 nM
TGI (HT29 colon): 4690 nM
GI50 (786-0 renal): 853 nM
TGI (786-0 renal): 2390 nM
GI50 (HOP-92 NSCLC): 175 nM
TGI (HOP-92 NSCLC): 1850 nM
GI50 (NCI-H522 lung): 91.2 nM
TGI (NCI-H522 lung): 1820 nM
GI50 (KM12 colon): 73.2 nM
TGI (KM12 colon): 1520 nM
GI50 (RPMI-8226 leukemia): 42.3 nM
TGI (RPMI-8226 leukemia): 1890 nM
GI50 (UACC-62 melanoma): 123 nM
TGI (UACC-62 melanoma): 1920 nM
GI50 (OVCAR-4 ovarian): 36.4 nM
TGI (OVCAR-4 ovarian): 3570 nM
GI50 (SR leukemia): 71.6 nM
TGI (SR leukemia): > 100000 nM
GI50 (OVCAR-5 ovarian): 416 nM
TGI (OVCAR-5 ovarian): 4880 nM
GI50 (SNB-75 CNS): 479 nM
TGI (SNB-75 CNS): 2120 nM
GI50 (COLO 205 colon): 22.7 nM
TGI (COLO 205 colon): 379 nM
GI50 (NCI/ADR-RES ovarian): 47.2 nM
TGI (NCI/ADR-RES ovarian): 6260 nM
GI50 (BT-549 breast): 92 nM
TGI (BT-549 breast): 2720 nM
GI50 (SF-539 CNS): 171 nM
TGI (SF-539 CNS): 2450 nM
GI50 (TK-10 renal): 191 nM
TGI (TK-10 renal): 2560 nM
GI50 (HL-60(TB) leukemia): 42.9 nM
TGI (HL-60(TB) leukemia): 3910 nM
GI50 (IGROV1 ovarian): < 30.4 nM
TGI (IGROV1 ovarian): 2440 nM
GI50 (SN12C renal): 114 nM
TGI (SN12C renal): 3870 nM
GI50 (SK-OV-3 ovarian): 304 nM
TGI (SK-OV-3 ovarian): 2460 nM
GI50 (ACHN renal): < 17.5 nM
TGI (ACHN renal): 1670 nM
GI50 (SF-295 CNS): 29.6 nM
TGI (SF-295 CNS): 2810 nM
GI50 (HCC-2998 colon): 156 nM
TGI (HCC-2998 colon): 2760 nM
GI50 (A549 NSCLC): 34.6 nM
TGI (A549 NSCLC): 2940 nM
GI50 (SK-MEL-5 melanoma): 194 nM
TGI (SK-MEL-5 melanoma): 1590 nM
GI50 (SF-268 CNS): 76.6 nM
TGI (SF-268 CNS): 5620 nM
GI50 (SK-MEL-2 melanoma): 73.3 nM
TGI (SK-MEL-2 melanoma): 1650 nM
GI50 (T-47D breast): < 14.6 nM
TGI (T-47D breast): 1630 nM
GI50 (NCI-H23 lung): 36.5 nM
TGI (NCI-H23 lung): 5010 nM
GI50 (UO-31 renal): 134 nM
TGI (UO-31 renal): 1820 nM
GI50 (NCI-H460 lung): 47.9 nM
TGI (NCI-H460 lung): 3170 nM
GI50 (HOP-62 NSCLC): 50.4 nM
TGI (HOP-62 NSCLC): 1960 nM
GI50 (PC-3 prostate): 19.5 nM
TGI (PC-3 prostate): 2990 nM
GI50 (DU-145 prostate): 292 nM
TGI (DU-145 prostate): 3750 nM
GI50 (NCI-H226 lung): 561 nM
TGI (NCI-H226 lung): 2130 nM
GI50 (EKVX NSCLC): 72.8 nM
TGI (EKVX NSCLC): 4800 nM
GI50 (HS 578T breast): 1060 nM
TGI (HS 578T breast): 14500 nM
GI50 (U251 CNS): < 17.2 nM
TGI (U251 CNS): 6160 nM
GI50 (MALME-3M melanoma): < 32.5 nM
TGI (MALME-3M melanoma): 2030 nM
GI50 (MDA-MB-231 breast): 92.2 nM
TGI (MDA-MB-231 breast): 3690 nM
TGI (HCT-116 colon): 3490 nM
GI50 (K-562 leukemia): 23.8 nM
TGI (K-562 leukemia): > 100000 nM
